Data as given in the supplement of paper PMC10307832.

Tests used:
Test in all cases: relative viability (nuclei count vs DMSO), 5 days (fraction); higher = more cells survive
RU-SKI 43 + Phenformin = compound: CC[C@@H](C)CNCC(=O)N1CCC2=C([C@@H]1COC3=CC=CC(=C3)C)C=CS2 [RU-SKI 43] + N=C(N)NC(=N)NCCc1ccccc1 [Phenformin] (partner 250 µM)
Summary of the method: (§1)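 After 5 days of treatment, lung cancer cells in 1536-well plates were fixed and stained in a single step (final 0.05% Triton X-100, 1% formaldehyde, 1 ug/ml Hoechst) and their nuclei counted on 4× images. Treatment had been applied by pin tool the day after seeding as one drug alone or as a fixed anchor-drug dose with five library-drug doses (not always all listed) in √10 steps. Relative viability is the nuclei count of treated wells divided by that of vehicle wells, and values are medians of duplicate plates.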

Irinotecan + Trametinib = compound: CCc1c2c(nc3ccc(OC(=O)N4CCC(N5CCCCC5)CC4)cc13)-c1cc3c(c(=O)n1C2)COC(=O)[C@]3(O)CC [Irinotecan] + CC(=O)Nc1cccc(-n2c(=O)n(C3CC3)c(=O)c3c(Nc4ccc(I)cc4F)n(C)c(=O)c(C)c32)c1 [Trametinib] (partner 0.02 µM)
Summary of the method: as §1

Irinotecan + Luminespib = compound: CCc1c2c(nc3ccc(OC(=O)N4CCC(N5CCCCC5)CC4)cc13)-c1cc3c(c(=O)n1C2)COC(=O)[C@]3(O)CC [Irinotecan] + CCNC(=O)c1noc(-c2cc(C(C)C)c(O)cc2O)c1-c1ccc(CN2CCOCC2)cc1 [Luminespib] (partner 0.01 µM)
Summary of the method: as §1

RU-SKI 43 + Navitoclax = compound: CC[C@@H](C)CNCC(=O)N1CCC2=C([C@@H]1COC3=CC=CC(=C3)C)C=CS2 [RU-SKI 43] + CC1(C)CCC(c2ccc(Cl)cc2)=C(CN2CCN(c3ccc(C(=O)NS(=O)(=O)c4ccc(N[C@H](CCN5CCOCC5)CSc5ccccc5)c(S(=O)(=O)C(F)(F)F)c4)cc3)CC2)C1 [Navitoclax] (partner 0.5 µM)
Summary of the method: as §1

LCLC-97TM1
relative viability (RU-SKI 43 + Phenformin; first compound 0.1 µM): 0.463 | relative viability (RU-SKI 43 + Phenformin; first compound 0.3162 µM): 0.471 | relative viability (RU-SKI 43 + Phenformin; first compound 1 µM): 0.422 | relative viability (RU-SKI 43 + Phenformin; first compound 3.162 µM): 0.43 | relative viability (RU-SKI 43 + Phenformin; first compound 10 µM): 0.384 | relative viability (Irinotecan + Trametinib; first compound 0.6325 µM): 0.131 | relative viability (Irinotecan + Trametinib; first compound 2 µM): 0.14 | relative viability (Irinotecan + Trametinib; first compound 6.325 µM): 0.128 | relative viability (Irinotecan + Trametinib; first compound 20 µM): 0.154 | relative viability (Irinotecan + Luminespib; first compound 0.6325 µM): 0.228 | relative viability (Irinotecan + Luminespib; first compound 2 µM): 0.208 | relative viability (Irinotecan + Luminespib; first compound 6.325 µM): 0.148 | relative viability (Irinotecan + Luminespib; first compound 20 µM): 0.181 | relative viability (RU-SKI 43 + Navitoclax; first compound 0.1 µM): 0.197 | relative viability (RU-SKI 43 + Navitoclax; first compound 1 µM): 0.336 | relative viability (RU-SKI 43 + Navitoclax; first compound 3.162 µM): 0.399 | relative viability (RU-SKI 43 + Navitoclax; first compound 10 µM): 0.396

EMC-BAC-2
relative viability (RU-SKI 43 + Phenformin; first compound 0.1 µM): 0.535 | relative viability (RU-SKI 43 + Phenformin; first compound 0.3162 µM): 0.429 | relative viability (RU-SKI 43 + Phenformin; first compound 1 µM): 0.551 | relative viability (RU-SKI 43 + Phenformin; first compound 3.162 µM): 0.482 | relative viability (RU-SKI 43 + Phenformin; first compound 10 µM): 0.507 | relative viability (Irinotecan + Trametinib; first compound 0.6325 µM): 0.867 | relative viability (Irinotecan + Trametinib; first compound 2 µM): 0.766 | relative viability (Irinotecan + Trametinib; first compound 6.325 µM): 0.474 | relative viability (Irinotecan + Trametinib; first compound 20 µM): 0.201 | relative viability (Irinotecan + Luminespib; first compound 0.6325 µM): 0.681 | relative viability (Irinotecan + Luminespib; first compound 2 µM): 0.407 | relative viability (Irinotecan + Luminespib; first compound 6.325 µM): 0.347 | relative viability (Irinotecan + Luminespib; first compound 20 µM): 0.375 | relative viability (RU-SKI 43 + Navitoclax; first compound 0.1 µM): 1.14 | relative viability (RU-SKI 43 + Navitoclax; first compound 0.3162 µM): 1.57 | relative viability (RU-SKI 43 + Navitoclax; first compound 1 µM): 1.21 | relative viability (RU-SKI 43 + Navitoclax; first compound 3.162 µM): 1.26 | relative viability (RU-SKI 43 + Navitoclax; first compound 10 µM): 1.15

NCI-H647
relative viability (RU-SKI 43 + Phenformin; first compound 0.1 µM): 0.631 | relative viability (RU-SKI 43 + Phenformin; first compound 0.3162 µM): 0.621 | relative viability (RU-SKI 43 + Phenformin; first compound 1 µM): 0.84 | relative viability (RU-SKI 43 + Phenformin; first compound 3.162 µM): 0.686 | relative viability (RU-SKI 43 + Phenformin; first compound 10 µM): 0.501 | relative viability (Irinotecan + Trametinib; first compound 0.6325 µM): 0.447 | relative viability (Irinotecan + Trametinib; first compound 2 µM): 0.414 | relative viability (Irinotecan + Trametinib; first compound 6.325 µM): 0.151 | relative viability (Irinotecan + Trametinib; first compound 20 µM): 0.0916 | relative viability (Irinotecan + Luminespib; first compound 0.6325 µM): 0.152 | relative viability (Irinotecan + Luminespib; first compound 2 µM): 0.212 | relative viability (Irinotecan + Luminespib; first compound 6.325 µM): 0.157 | relative viability (Irinotecan + Luminespib; first compound 20 µM): 0.119 | relative viability (RU-SKI 43 + Navitoclax; first compound 0.1 µM): 1.12 | relative viability (RU-SKI 43 + Navitoclax; first compound 0.3162 µM): 1.29 | relative viability (RU-SKI 43 + Navitoclax; first compound 1 µM): 1.26 | relative viability (RU-SKI 43 + Navitoclax; first compound 3.162 µM): 1.23 | relative viability (RU-SKI 43 + Navitoclax; first compound 10 µM): 1.15

NCI-H1944
relative viability (RU-SKI 43 + Phenformin; first compound 0.1 µM): 0.214 | relative viability (RU-SKI 43 + Phenformin; first compound 0.3162 µM): 0.21 | relative viability (RU-SKI 43 + Phenformin; first compound 1 µM): 0.225 | relative viability (RU-SKI 43 + Phenformin; first compound 3.162 µM): 0.213 | relative viability (RU-SKI 43 + Phenformin; first compound 10 µM): 0.177 | relative viability (Irinotecan + Trametinib; first compound 0.6325 µM): 0.291 | relative viability (Irinotecan + Trametinib; first compound 2 µM): 0.204 | relative viability (Irinotecan + Trametinib; first compound 6.325 µM): 0.177 | relative viability (Irinotecan + Trametinib; first compound 20 µM): 0.178 | relative viability (Irinotecan + Luminespib; first compound 0.6325 µM): 0.557 | relative viability (Irinotecan + Luminespib; first compound 2 µM): 0.312 | relative viability (Irinotecan + Luminespib; first compound 6.325 µM): 0.167 | relative viability (Irinotecan + Luminespib; first compound 20 µM): 0.149 | relative viability (RU-SKI 43 + Navitoclax; first compound 0.1 µM): 1.02 | relative viability (RU-SKI 43 + Navitoclax; first compound 0.3162 µM): 1.05 | relative viability (RU-SKI 43 + Navitoclax; first compound 1 µM): 1.12 | relative viability (RU-SKI 43 + Navitoclax; first compound 3.162 µM): 1.02 | relative viability (RU-SKI 43 + Navitoclax; first compound 10 µM): 0.938

PC-3 [JPC-3]
relative viability (RU-SKI 43 + Phenformin; first compound 0.1 µM): 0.466 | relative viability (RU-SKI 43 + Phenformin; first compound 0.3162 µM): 0.484 | relative viability (RU-SKI 43 + Phenformin; first compound 1 µM): 0.457 | relative viability (RU-SKI 43 + Phenformin; first compound 3.162 µM): 0.52 | relative viability (RU-SKI 43 + Phenformin; first compound 10 µM): 0.511 | relative viability (Irinotecan + Trametinib; first compound 0.6325 µM): 0.671 | relative viability (Irinotecan + Trametinib; first compound 2 µM): 0.811 | relative viability (Irinotecan + Trametinib; first compound 6.325 µM): 0.534 | relative viability (Irinotecan + Trametinib; first compound 20 µM): 0.358 | relative viability (Irinotecan + Luminespib; first compound 0.6325 µM): 0.642 | relative viability (Irinotecan + Luminespib; first compound 2 µM): 0.431 | relative viability (Irinotecan + Luminespib; first compound 6.325 µM): 0.334 | relative viability (Irinotecan + Luminespib; first compound 20 µM): 0.36 | relative viability (RU-SKI 43 + Navitoclax; first compound 0.1 µM): 0.74 | relative viability (RU-SKI 43 + Navitoclax; first compound 0.3162 µM): 0.748 | relative viability (RU-SKI 43 + Navitoclax; first compound 1 µM): 0.783 | relative viability (RU-SKI 43 + Navitoclax; first compound 3.162 µM): 0.792 | relative viability (RU-SKI 43 + Navitoclax; first compound 10 µM): 0.779

SK-LU-1
relative viability (RU-SKI 43 + Phenformin; first compound 0.1 µM): 0.531 | relative viability (RU-SKI 43 + Phenformin; first compound 0.3162 µM): 0.689 | relative viability (RU-SKI 43 + Phenformin; first compound 1 µM): 0.555 | relative viability (RU-SKI 43 + Phenformin; first compound 3.162 µM): 0.715 | relative viability (RU-SKI 43 + Phenformin; first compound 10 µM): 0.502 | relative viability (Irinotecan + Trametinib; first compound 0.6325 µM): 0.36 | relative viability (Irinotecan + Trametinib; first compound 2 µM): 0.417 | relative viability (Irinotecan + Trametinib; first compound 6.325 µM): 0.399 | relative viability (Irinotecan + Trametinib; first compound 20 µM): 0.316 | relative viability (Irinotecan + Luminespib; first compound 0.6325 µM): 0.202 | relative viability (Irinotecan + Luminespib; first compound 2 µM): 0.241 | relative viability (Irinotecan + Luminespib; first compound 6.325 µM): 0.244 | relative viability (Irinotecan + Luminespib; first compound 20 µM): 0.236 | relative viability (RU-SKI 43 + Navitoclax; first compound 0.1 µM): 0.789 | relative viability (RU-SKI 43 + Navitoclax; first compound 0.3162 µM): 0.817 | relative viability (RU-SKI 43 + Navitoclax; first compound 1 µM): 0.841 | relative viability (RU-SKI 43 + Navitoclax; first compound 3.162 µM): 0.831 | relative viability (RU-SKI 43 + Navitoclax; first compound 10 µM): 1.03

NCI-H1975
relative viability (RU-SKI 43 + Phenformin; first compound 0.1 µM): 0.385 | relative viability (RU-SKI 43 + Phenformin; first compound 0.3162 µM): 0.468 | relative viability (RU-SKI 43 + Phenformin; first compound 1 µM): 0.444 | relative viability (RU-SKI 43 + Phenformin; first compound 3.162 µM): 0.422 | relative viability (RU-SKI 43 + Phenformin; first compound 10 µM): 0.404 | relative viability (Irinotecan + Trametinib; first compound 0.6325 µM): 0.224 | relative viability (Irinotecan + Trametinib; first compound 2 µM): 0.341 | relative viability (Irinotecan + Trametinib; first compound 6.325 µM): 0.292 | relative viability (Irinotecan + Trametinib; first compound 20 µM): 0.224 | relative viability (Irinotecan + Luminespib; first compound 0.6325 µM): 0.107 | relative viability (Irinotecan + Luminespib; first compound 2 µM): 0.201 | relative viability (Irinotecan + Luminespib; first compound 6.325 µM): 0.175 | relative viability (Irinotecan + Luminespib; first compound 20 µM): 0.235 | relative viability (RU-SKI 43 + Navitoclax; first compound 0.1 µM): 1.06 | relative viability (RU-SKI 43 + Navitoclax; first compound 0.3162 µM): 1.45 | relative viability (RU-SKI 43 + Navitoclax; first compound 1 µM): 1.07 | relative viability (RU-SKI 43 + Navitoclax; first compound 3.162 µM): 1.07 | relative viability (RU-SKI 43 + Navitoclax; first compound 10 µM): 1.07

HARA
relative viability (RU-SKI 43 + Phenformin; first compound 0.1 µM): 0.531 | relative viability (RU-SKI 43 + Phenformin; first compound 0.3162 µM): 0.471 | relative viability (RU-SKI 43 + Phenformin; first compound 1 µM): 0.491 | relative viability (RU-SKI 43 + Phenformin; first compound 3.162 µM): 0.457 | relative viability (RU-SKI 43 + Phenformin; first compound 10 µM): 0.408 | relative viability (Irinotecan + Trametinib; first compound 0.6325 µM): 0.643 | relative viability (Irinotecan + Trametinib; first compound 2 µM): 0.373 | relative viability (Irinotecan + Trametinib; first compound 6.325 µM): 0.245 | relative viability (Irinotecan + Trametinib; first compound 20 µM): 0.145 | relative viability (Irinotecan + Luminespib; first compound 0.6325 µM): 0.0995 | relative viability (Irinotecan + Luminespib; first compound 2 µM): 0.29 | relative viability (Irinotecan + Luminespib; first compound 6.325 µM): 0.147 | relative viability (Irinotecan + Luminespib; first compound 20 µM): 0.111 | relative viability (RU-SKI 43 + Navitoclax; first compound 0.1 µM): 1.19 | relative viability (RU-SKI 43 + Navitoclax; first compound 0.3162 µM): 1.14 | relative viability (RU-SKI 43 + Navitoclax; first compound 1 µM): 1.15 | relative viability (RU-SKI 43 + Navitoclax; first compound 3.162 µM): 1.16 | relative viability (RU-SKI 43 + Navitoclax; first compound 10 µM): 1.13
